Measurements taken from patent US20050208678A1, “Anti-fusion assay” (priority 2001, published 2005).
Where no end group is shown, it is not given here.

How the values were obtained:
[1] = tested on: IQN17; assay: Binding of Alexa-C28 to IQN17, titration measured by capillary zone electrophoresis; set-up: species or system HIV-1; conditions: 5 μM Alexa-C28, increasing concentration of IQN17, FIG. 3
Experimental: Eckert et al., Cell 99, 103-115 (1999). C28 was labeled with the fluorescent molecule, Alexa-430 (Molecular Probes) at its carboxyl terminal (Alexa-C28). The binding was measured by titration of labeled C28 with IQN17. The concentration of bound and unbound C28 was measured by capillary zone electrophoresis.
Capillary Electrophoresis Separations. Capillary electrophoresis experiments were conducted on a Beckman Coulter P/ACE System MDQ and a Spectrumedix 9610HTS. […] Separations were conducted with an applied voltage of 30 kV. The capillaries used in the Spectrumedix 9610HTS has an inner diameter of 50 μm, effective length of 50 cm, and an inner surface of fused silica. Separations were conducted with an applied voltage of 13 kV. Separation buffer was 20 mM Sodium Borate, pH=8.5. Peptides traveling passed a fluorescence detector were excited by a laser emitting at 488 nm. The peaks were analyzed using software packages supplied by the instrument companies. In the figures, RFU refers to relative fluorescence units.
Binding of C28 to IQN17: Peptide concentrations were determined by weight. […] The binding affinity of C28 to IQN-17 was determined by a capillary electrophoresis (FIG. 3). […]
The area of the Alexa-C28 peaks in increasing concentrations of IQN-17 was analyzed in comparison to the area of Alexa-C28 in the absence of IQN-17 by capillary zone electrophoresis. […]

[2] = target: IQN17 (HIV-1 (gp41 segment); GCN4-pIQI segment designed)

| Molecule | amount of unbound peptide (broader peak on the right) in titration [1] | percent of C28 bound [2] [%] |
| --- | --- | --- |
| Alexa-C28: C28 labeled with the fluorescent molecule Alexa-430 at its carboxyl terminal (WMEWDREINNYTSLIHSLIEESQNQQEK-{Alexa‑430}) | decreased from 100% to 0% | – |
| WMEWDREINNYTSLIHSLIEESQNQQEK (modifications not checked) [Alexa-C28] | – | 80 |
